# Results: US9328099B2, “Cyanomethylpyrazole carboxamides as janus kinase inhibitors” (Merck Sharp & Dohme Corp., priority 2011, dated 2016)
# Target: JAK1 (Homo sapiens (Human), UniProt P23458)
# Assay: Jak Biochemical HTRF Assay, JAK1
# Details: HTRF biochemical assay, GST-tagged catalytic domain; top concentration tested […]; read-out: JAK1 IC50
# From the text: Jak Biochemical HTRF Assay Protocol
# Subsequent reagent additions employed an Agilent Bravo.
# JAK1, sequence (P23458 875-1153): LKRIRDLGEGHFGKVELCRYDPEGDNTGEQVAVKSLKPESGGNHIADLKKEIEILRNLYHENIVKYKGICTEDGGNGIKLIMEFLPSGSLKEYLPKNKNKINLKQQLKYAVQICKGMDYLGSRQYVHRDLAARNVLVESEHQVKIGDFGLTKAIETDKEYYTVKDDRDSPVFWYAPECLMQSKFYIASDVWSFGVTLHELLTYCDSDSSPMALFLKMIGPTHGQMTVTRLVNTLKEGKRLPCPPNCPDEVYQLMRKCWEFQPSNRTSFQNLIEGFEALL
row,SMILES,IC50
1,"N#CCC1(n2cc(C(N)=O)c(Nc3ccnc(F)c3)n2)CCC(Nc2ccccn2)CC1 (stereo not drawn) [Example 40-22, Cis or trans 1-[1-(cyanomethyl)-4-(pyridin-2-ylamino)cyclohexyl]-3-[(2-fluoropyridin-4-yl)amino]-1H-pyrazole-4-carboxamide]",4 nM
2,"N#CCC1(n2cc(C(N)=O)c(Nc3ccc(OC4CCC4)nc3)n2)CCN(C(=O)OCC(F)F)CC1 [Example 9-37, 2,2-difluoroethyl 4-(4-carbamoyl-3-{[6-(cyclobutyloxy)pyridin-3-yl]amino}-1H-pyrazol-1-yl)-4-(cyanomethyl)piperidine-1-carboxylate]",0.2 nM
3,"COc1cc(Nc2nn(C3(CC#N)CCN(C(=O)OC(C)(C)C)CC3)cc2C(N)=O)ccn1 [Example 9-19, tert-butyl 4-{4-carbamoyl-3-[(2-methoxypyridin-4-yl)amino]-1H-pyrazol-1-yl}-4-(cyanomethyl)piperidine-1-carboxylate]",6 nM
4,"N#CCC1(n2cc(C(N)=O)c(Nc3ccc(S(=O)(=O)C(F)F)cc3)n2)CCC(N2CC(F)C2)CC1 (stereo not drawn) [Example 40-105, Cis or trans 1-[1-(cyanomethyl)-4-(3-fluoroazetidin-1-yl)cyclohexyl]-3-({4-[(difluoromethyl)sulfonyl]phenyl}amino)-1H-pyrazole-4-carboxamide]",0.08 nM
5,"N#CCC1(n2cc(C(N)=O)c(Nc3ccnc(F)c3)n2)CCC(N2CCC(O)CC2)CC1 (stereo not drawn) [Example 40-13, Cis or trans 1-[1-(cyanomethyl)-4-(4-hydroxypiperidin-1-yl)cyclohexyl]-3-[(2-fluoropyridin-4-yl)amino]-1H-pyrazole-4-carboxamide]",115 nM
6,"COc1ccccc1CN1CCC(CC#N)(n2cc(C(N)=O)c(Nc3ccnc(F)c3)n2)CC1 [Example 22-66, 1-[4-(cyanomethyl)-1-(2-methoxybenzyl)piperidin-4-yl]-3-[(2-fluoropyridin-4-yl)amino]-1H-pyrazole-4-carboxamide]",2 nM
7,"N#CCC1(n2cc(C(N)=O)c(Nc3ccccc3)n2)CN(C(=O)OCCc2cccc3ccccc23)C1 [Example 30-54, 2-naphthalen-1-ylethyl 3-[4-carbamoyl-3-(phenylamino)-1H-pyrazol-1-yl]-3-(cyanomethyl)azetidine-1-carboxylate]",375 nM
8,"N#CC[C@]1(n2cc(C(N)=O)c(Nc3ccnc(F)c3)n2)CC[C@@H](NS(=O)(=O)c2cccc(F)c2)CC1 [Example 42, cis-1-(1-(Cyanomethyl)-4-(3-fluorophenylsulfonamido)cyclohexyl)-3-((2-fluoropyridin-4-yl)amino)-1H-pyrazole-4-carboxamide]",8 nM
9,"N#CCC1(n2cc(C(N)=O)c(Nc3ccccc3)n2)CCN(C(=O)Nc2ccc(C#N)cc2)CC1 [Example 38-47, 4-[4-carbamoyl-3-(phenylamino)-1H-pyrazol-1-yl]-4-(cyanomethyl)-N-(4-cyanophenyl)piperidine-1-carboxamide]",0.2 nM
10,"N#CCC1(n2cc(C(N)=O)c(Nc3ccccc3)n2)CCN(Cc2cc3ccccc3o2)CC1 [Example 21-20, 1-[1-(1-benzofuran-2-ylmethyl)-4-(cyanomethyl)piperidin-4-yl]-3-(phenylamino)-1H-pyrazole-4-carboxamide]",10 nM
11,"Cc1ccc(F)cc1NC(=O)N1CC(CC#N)(n2cc(C(N)=O)c(Nc3ccccc3)n2)C1 [Example 38-38, 1-{3-(cyanomethyl)-1-[(5-fluoro-2-methylphenyl)carbamoyl]azetidin-3-yl}-3-(phenylamino)-1H-pyrazole-4-carboxamide]",13 nM
12,"N#CCC1(n2cc(C(N)=O)c(Nc3ccc(C(F)(F)F)cc3)n2)CCC(N2CC(F)C2)CC1 (stereo not shown) [Example 39-2, 1-[1-(cyanomethyl)-4-(3-fluoroazetidin-1-yl)cyclohexyl]-3-{[4-(trifluoromethyl)phenyl]amino}-1H-pyrazole-4-carboxamide]",0.1 nM
13,"CC(C)(C)OC(=O)C1CCC(CC#N)(n2cc(C(N)=O)c(Nc3ccccc3)n2)CC1 (stereo not shown) [Example 2-18, tert-butyl 4-[4-carbamoyl-3-(phenylamino)-1H-pyrazol-1-yl]-4-(cyanomethyl) cyclohexanecarboxylate]",3 nM
14,"CNC1CCC(CC#N)(n2cc(C(N)=O)c(Nc3ccc(F)cc3)n2)CC1 (stereo not drawn) [Example 40-78, Cis or trans 1-[1-(cyanomethyl)-4-(methylamino)cyclohexyl]-3-[(4-fluorophenyl)amino]-1H-pyrazole-4-carboxamide]",12 nM
15,"CN1CCN(CCOC(=O)N2CC(CC#N)(n3cc(C(N)=O)c(Nc4ccccc4)n3)C2)CC1 [Example 30-72, 2-(4-methylpiperazin-1-yl)ethyl 3-[4-carbamoyl-3-(phenylamino)-1H-pyrazol-1-yl]-3-(cyanomethyl)azetidine-1-carboxylate]",72 nM
16,"Cc1cccc(N2CCC(CC#N)(n3cc(C(N)=O)c(Nc4ccc(F)cc4)n3)CC2)n1 [Example 3-20, 1-[4-(cyanomethyl)-1-(6-methylpyridin-2-yl)piperidin-4-yl]-3-[(4-fluorophenyl)amino]-1H-pyrazole-4-carboxamide]",5 nM

row,SMILES,IC50
1,"N#CCC1(n2cc(C(N)=O)c(Nc3ccc(F)cc3)n2)CCC(Nc2cc(F)ccc2F)CC1 (stereo not drawn) [Example 40-50, Cis and trans 1-{1-(cyanomethyl)-4-[(2,5-difluorophenyl)amino]cyclohexyl}-3-[(4-fluorophenyl)amino]-1H-pyrazole-4-carboxamide]",0.1 nM
2,"N#CCC1(n2cc(C(N)=O)c(Nc3ccccc3)n2)CCN(S(=O)(=O)c2ccc(C(F)(F)F)cc2)CC1 [Example 37-13, 1-[4-(cyanomethyl)-1-{[4-(trifluoromethyl)phenyl]sulfonyl}piperidin-4-yl]-3-(phenylamino)-1H-pyrazole-4-carboxamide]",3 nM
3,"CC(OC(=O)N1CCC(CC#N)(n2cc(C(N)=O)c(Nc3ccc(F)cc3)n2)CC1)C1CC1 (stereo not shown) [Example 30-12, 1-cyclopropylethyl 4-(4-carbamoyl-3-(4-fluorophenylamino)-1H-pyrazol-1-yl)-4-(cyanomethyl)piperidine-1-carboxylate]",6 nM
4,"CC(C)(C)OC(=O)N1CCC(CC#N)(n2cc(C(N)=O)c(Nc3ccnc(C(F)(F)F)c3)n2)CC1 [Example 9-23, tert-butyl 4-(4-carbamoyl-3-{[2-(trifluoromethyl)pyridin-4-yl]amino}-1H-pyrazol-1-yl)-4-(cyanomethyl)piperidine-1-carboxylate]",0.4 nM
5,"N#CCC1(n2cc(C(N)=O)c(Nc3ccnc(F)c3)n2)CCC(Nc2ccccn2)CC1 (stereo not drawn) [Example 40-4, Cis or trans 1-[1-(cyanomethyl)-4-(pyridin-2-ylamino)cyclohexyl]-3-[(2-fluoropyridin-4-yl)amino]-1H-pyrazole-4-carboxamide]",102 nM
6,"N#CCC1(n2cc(C(N)=O)c(Nc3ccccc3)n2)CN(C(=O)OCCc2ccccc2)C1 [Example 30-58, 2-phenylethyl 3-[4-carbamoyl-3-(phenylamino)-1H-pyrazol-1-yl]-3-(cyanomethyl)azetidine-1-carboxylate]",76 nM
7,"N#CCC1(n2cc(C(N)=O)c(Nc3ccnc(F)c3)n2)CCC(Nc2ccccc2F)CC1 (stereo not drawn) [Example 40-24, Cis or trans 1-{1-(cyanomethyl)-4-[(2-fluorophenyl)amino]cyclohexyl}-3-[(2-fluoropyridin-4-yl)amino]-1H-pyrazole-4-carboxamide]",8 nM
8,"N#CCC1(n2cc(C(N)=O)c(Nc3ccc(F)cc3)n2)CCC(NCCO)CC1 (stereo not drawn) [Example 40-68, Cis or trans 1-{1-(cyanomethyl)-4-[(2-hydroxyethyl)amino]cyclohexyl}-3-[(4-fluorophenyl)amino]-1H-pyrazole-4-carboxamide]",69 nM
9,"CC(C)(C)COC(=O)N1CC(CC#N)(n2cc(C(N)=O)c(Nc3ccccc3)n2)C1 [Example 30-56, 2,2-dimethylpropyl 3-[4-carbamoyl-3-(phenylamino)-1H-pyrazol-1-yl]-3-(cyanomethyl)azetidine-1-carboxylate]",18 nM
10,"CC(F)(F)C(=O)N1CC[C@](CC#N)(n2cc(C(N)=O)c(Nc3ccc(F)nc3)n2)[C@H](F)C1 (single isomer, unassigned) [Example 43-3, 1-((3R,4R or 3S,4S)-4-(cyanomethyl)-1-(2,2-difluoropropanoyl)-3-fluoropiperidin-4-yl)-3-((6-fluoropyridin-3-yl)amino)-1H-pyrazole-4-carboxamide]",0.9 nM
11,"CS(=O)(=O)c1ccc(Nc2nn(C3(CC#N)CCOCC3)cc2C(N)=O)cc1 [Example 4-5, 1-[4-(cyanomethyl)tetrahydro-2H-pyran-4-yl]-3-{[4-(methylsulfonyl)phenyl]amino}-1H-pyrazole-4-carboxamide]",22 nM
12,"N#CCC1(n2cc(C(N)=O)c(Nc3ccc(S(=O)(=O)C(F)F)cc3)n2)CCC(N2CC(F)C2)CC1 (stereo not drawn) [Example 40-91, Cis or trans 1-[1-(cyanomethyl)-4-(3-fluoroazetidin-1-yl)cyclohexyl]-3-({4-[(difluoromethyl)sulfonyl]phenyl}amino)-1H-pyrazole-4-carboxamide]",67 nM
13,"N#CCC1(n2cc(C(N)=O)c(Nc3ccnc(F)c3)n2)CCN(C(=O)OC2CCOC2)CC1 (single isomer, unassigned) [Example 49-1, (3S or 3R)-tetrahydrofuran-3-yl 4-{4-carbamoyl-3-[(2-fluoropyridin-4-yl)amino]-1H-pyrazol-1-yl}-4-(cyanomethyl)piperidine-1-carboxylate]",0.6 nM
14,"N#CCC1(n2cc(C(N)=O)c(Nc3ccc(S(=O)(=O)C(F)(F)F)cc3)n2)CCN(C(=O)OC2COC2)CC1 [Example 30-26, oxetan-3-yl 4-(4-carbamoyl-3-(4-(trifluoromethylsulfonyl)phenylamino)-1H-pyrazol-1-yl)-4-(cyanomethyl)piperidine-1-carboxylate]",0.2 nM
15,"N#CCC1(n2cc(C(N)=O)c(Nc3ccccc3)n2)CCN(C(=O)c2ccccn2)CC1 [Example 34-9, 1-[4-(cyanomethyl)-1-(pyridin-2-ylcarbonyl)piperidin-4-yl]-3-(phenylamino)-1H-pyrazole-4-carboxamide]",18 nM
